# According to US10028913B2, “Liposomal pharmaceutical preparation and method for manufacturing the same” (priority 2006, dated 2018):
# Several values for one entry are separate records, joined by “and”; a condition that tells them apart may be missing. Equal entries are not always repeated. Where two headings read alike, the source gives them in different places.
# Legend:
# [1] = Pharmacokinetics of PLM60 and FM in Kunming mice (plasma level of mitoxantrone); type: in vivo; conditions: 2 mg/kg, tail vein
# Description: This example was conducted in male Kunming mice with a body weight of about 20 g. Different dose levels of mitoxantrone were injected through tail vein in mice. […] Plasma samples were taken at different time points. The methods for processing and detecting plasma samples were described in the document: Methods in enzymology, Vol: 391, p176-185.
# [2] = Tissue distribution in S-180 tumor-bearing mice; type: in vivo; conditions: male, Kunming, mouse, intravenous, 4 mg/kg i.v.; for concentration at 1 h: t 1 h; for concentration at 4 h: t 4 h; for concentration at 8 h: t 8 h; for concentration at 24 h: t 24 h
# Description: There were obvious differences in tissue distribution between PLM60 and FM in tumor-bearing mice. Male Kunming mice having a body weight about 20 g were used in the present example. […] Drugs were injected through vein in mice when tumor grew to 0.4-0.7 g. After the administration of drugs, mice were executed at various time points and their tissues were taken out to determine the concentration of mitoxantrone. The tissues included hearts, livers, spleens, lungs, kidneys, intestines, bone marrow and tumors.
# Kunming mice = experiment: Acute toxicity comparison of PLM60 and FM to Kunming mice; type: in vivo
# From the text: Mice of groups 1-5 were administrated with different dose levels of FM, while mice of groups 6-10 were administrated with an equivalent dose level of liposomal drug. […] The dead animals were dissected and autopsied.
# C57 mice = experiment: Toxicity comparison of liposome formulations with different sizes; type: in vivo
# Description: The dose was 9 mg/kg. […] In mice of FM group, the body weight decreased over 30% and about 20% mice died.
# S180 solid tumor = experiment: Treatment effects on S-180 sarcoma solid tumor; type: in vivo, KM mice; conditions: 21st day after inoculation
# Description: (§1) Ascitic tumor-bearing mice which were inoculated with S180 tumor cells 7 days ago were executed by decollation, and milky viscous ascitic fluid was extracted and diluted with RPMI 1640 medium. After dilution, the tumor cell number was adjusted to 2.5×10^6 cells/ml. […] After inoculation, the cells in the residual tumor cell suspension were counted under light microscope, and living tumor cells were greater than 95%. The number of inoculated mice was 80.
# The mice were administered by intravenous injection.
# The mice were bred normally after administration. Tumor diameters were measured by vernier caliper 3 times per week, and body weights were measured at the same time. Tumor volume (TV) was calculated with the following formula: V=½×a×b2, in which a and b represent length and width, respectively. The tumor volumes were calculated by using the measurement results. Mice were executed by decollation on the 21st day after inoculation, tumors were taken out and weighed. […] The experimental result was tested by t-test.
# L1210 ascitic tumor = experiment: Treatment effects of liposomal mitoxantrone with different size on L1210 ascitic tumor; type: in vivo, BDF1 mice; conditions: 4 mg/kg, 60 days observation
# From the text: as §1, with “Ascitic tumor BDF1” for “Ascitic tumor-bearing”, “with L1210 ascitic” for “with S180”, “extracted under aseptic condition” for “extracted”, “diluted by” for “diluted with”, “95%.” for “95%. The number of inoculated mice was 80.”
# After administration, the mice were bred normally. Their body weights were measured 3 times per week, the death time of each mouse was observed and recorded, and survival time was calculated. Mean survival time (MST) and median survival time were employed to evaluate the survival time of each group. Experimental observation was kept for 60 days after the inoculation.
# The experimental scheme and data process mode were the same as Example 19. […] The administration dosage for mice in each group was 4 mg/kg.
# [3] = two dissociable groups at physiological pH; cited from earlier work
# [4] = heart, read-out: concentration of mitoxantrone in Heart
# [5] = intestine, read-out: concentration of mitoxantrone in Intestine
# [6] = kidney, read-out: concentration of mitoxantrone in Kidney
# [7] = liver, read-out: concentration of mitoxantrone in Liver
# [8] = lung, read-out: concentration of mitoxantrone in Lung
# [9] = spleen, read-out: concentration of mitoxantrone in Spleen
# [10] = tumor, read-out: concentration of mitoxantrone in Tumor
smiles,measurement,setting,value
"O=C1c2c(O)ccc(O)c2C(=O)c2c(NCCNCCO)ccc(NCCNCCO)c21 [FM, mitoxantrone]",AUMC 0-48,[1],0.103
same,AUMC 0-∞,[1],0.135
same,AUC(0-inf),"[1]; male, Kunming, mouse, iv",199 ng·h/mL
same,Cmax,"[1]; male, Kunming, mouse, iv",699 ng/mL
same,Tmax,"[1]; male, Kunming, mouse, iv",4.98 min
same,AUC(0-t),"[1]; male, Kunming, mouse, iv, read-out: AUC 0-48",198 ng·h/mL
same,MRT last,"[1]; male, Kunming, mouse, iv, read-out: MRT 0-48",31 min
same,MRT inf,"[1]; male, Kunming, mouse, iv, read-out: MRT 0-∞",40.5 min
same,concentration at 1 h,"[2]; bone marrow, read-out: concentration of mitoxantrone in Bone marrow",127 ng/g
same,concentration at 1 h,[2]; [4],5380 ng/g
same,concentration at 4 h,[2]; [4],3520 ng/g
same,concentration at 8 h,[2]; [4],3200 ng/g
same,concentration at 24 h,[2]; [4],2940 ng/g
same,concentration at 1 h,[2]; [5],1530 ng/g
same,concentration at 4 h,[2]; [5],2140 ng/g
same,concentration at 8 h,[2]; [5],2550 ng/g
same,concentration at 24 h,[2]; [5],3940 ng/g
same,concentration at 1 h,[2]; [6],18200 ng/g
same,concentration at 4 h,[2]; [6],17200 ng/g
same,concentration at 8 h,[2]; [6],13400 ng/g
same,concentration at 24 h,[2]; [6],7460 ng/g
same,concentration at 1 h,[2]; [7],4770 ng/g
same,concentration at 4 h,[2]; [7],3560 ng/g
same,concentration at 8 h,[2]; [7],2660 ng/g
same,concentration at 24 h,[2]; [7],1940 ng/g
same,concentration at 1 h,[2]; [8],10200 ng/g
same,concentration at 4 h,[2]; [8],8020 ng/g
same,concentration at 8 h,[2]; [8],7020 ng/g
same,concentration at 24 h,[2]; [8],8080 ng/g
same,concentration at 1 h,[2]; [9],4040 ng/g
same,concentration at 4 h,[2]; [9],4460 ng/g
same,concentration at 8 h,[2]; [9],3770 ng/g
same,concentration at 24 h,[2]; [9],7750 ng/g
same,concentration at 1 h,[2]; [10],61.4 ng/g
same,concentration at 4 h,[2]; [10],13.3 ng/g
same,"Survival time of mice (male / female), individual animals",Kunming mice; dose 12 mg/kg,18 day (4×) and 13 day (3×)
same,"Survival time of mice (male / female), individual animals",Kunming mice; dose 20 mg/kg,7 day (4×) and 8 day (3×)
same,mice died,"C57 mice; male C57 mice, FM group",about 20%
same,body weight decrease,"C57 mice; mouse, in vivo",over 30%
same,Weight of tumor,S180 solid tumor; 4 mg/kg i.v.,2828.5 ± 1067.8 mg
same,Ratio of tumor-inhibiting,S180 solid tumor; 6 mg/kg i.v.,18.50%
same,Weight of tumor,S180 solid tumor; 6 mg/kg i.v.,2293.3 ± 1720.0 mg
same,Mean survival time,L1210 ascitic tumor,38.67 ± 3.54
same,Median survival time,L1210 ascitic tumor,36.00 ± 6.06
same,Survival rate,L1210 ascitic tumor,33.33%
same,pKa,[3],8.15
